Experimental data: patent US20180305334A1, “COMPOUNDS, COMPOSITIONS AND METHODS OF USE AGAINST STRESS GRANULES” (Aquinnah Pharmaceuticals, Inc., priority 2015, published 2018)

Assays:
Format in all cases: cell-based
[1] = test system: TDP-43 inclusions in PC12 cells stably expressing wild type (WT) TDP-43-GFP; test: Dose response assay for TDP-43 inhibition; details: Rattus norvegicus, PC-12, inhibition of TDP-43 inclusions, stressed with 15 μM, 12-point dose response
Procedure: Exemplary compounds of the invention were evaluated for efficacy in inhibiting TDP-43 inclusions using a dose response assay. Briefly, PC12 cells stably expressing wild type (WT) TDP-43-GFP were stressed with 15 μM to induce TDP-43 inclusions. The cells were then treated with exemplary compounds of the invention and the inhibitory effect on TDP-43 inclusions was observed using fluorescent microscopy. The ratio of cells with TDP-43 inclusions was calculated based on the total number of cells with detectable GFP expression. A 12-point dose response curve was generated, and the IC50 for each compound tested was determined.

[2] = test system: Embryonic mouse hippocampal neurons transduced with AAV1 EGFP, WT TDP-43 EGFP, A315T TDP-43 EGFP, or Q331K TDP-43 EGFP; test: Neuroprotection assay; details: average rescue total dendrite length; neurons treated DIV7, 9, 11 at 10 times the IC50 value; fixed DIV12
Procedure: CMF dissection buffer: 1× Hank's balanced salt solution (Ca—/Mg, 500 mL) and 10 mM HEPES, pH 7.25-7.3 (1M stock, 5 mL)
Plating media: MEM (Earle salts+/Glutamine, 95 mL), FBS (to 2.5%, 2.5 mL), Pen/Strep (lx, 1 mL), glutamine (lx, 1 mL), and D-glucose (0.6% w/v, 0.6 g)
Feeding media: neurobasal media (96 mL), B27 supplement (2 mL), Pen/Strep (1 mL), and glutamine (1 mL).
Embryonic mouse hippocampal neurons were cultured according to Kaech, S. and Banker, G. (2006) Nat Protoc 1:2406-2415 and dissected at PO from CD1 mice. Once all the hippocampi were removed, they were placed in a 15 mL conical Falcon tube on ice and brought to a final volume of 4.5 mL with CMF dissection buffer. 0.5 mL of a 2.5% trypsin-EDTA solution was then added, and the mixture was incubated at 37° C. for 15 min. The trypsin solution was gently removed, leaving the tissue at the bottom of the Falcon tube. 5 mL CMF dissection buffer was then added, and after gentle mixing, the tissue was allowed to sediment. This procedure was repeated three times. The hippocampi were then dissociated by adding 1.8 mL platting media and repeatedly pipetting in a glass Pasteur pipette; the dissociation process was repeated 5-10 times. The cells were then passed through a 70 um cell strainer into a 50 mL conical tube to remove clumps and debris, and the neurons were plated on glass coverslips coated with poly-D-lysine/laminin. On DIV 1 neurons were transduced with AAV1 EGFP, WT TDP-43 EGFP, A315T TDP-43 EGFP, or Q331K TDP-43 EGFP. […] Neurons were traced and analyzed using NeuronJ.
Results of the neuroprotection assay for exemplary compounds of the invention are summarized in Table 2, wherein A represents an average rescue total dendrite length of >150%; B represents an average rescue total dendrite length of 100-149%; C represents an average rescue total dendrite length of 50-99%; D represents an average rescue total dendrite length of 0-49%; E represents an average rescue total dendrite length of <0%; and ND signifies that the average rescue total dendrite length was not determined.

[3] = test system: TDP-43 aggregation in PC12 cells stably expressing TDP-43^Q331K::eGFP; test: In vitro efficacy assay, TDP-43 aggregation concentration-response; details: Rattus norvegicus, PC-12, inhibition of TDP-43 aggregation; PC12 TDP-43^Q331K::eGFP, 1 hour pre-treatment, 15 μM sodium arsenite for 23 hours; 10-point dose response
Summary of the method: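 PC12 cells stably expressing TDP-43^Q331K::eGFP pre-treated with compound for 1 h, then stressed with 15 μM sodium arsenite for 23 h. Fluorescence microscopy scored the fraction of GFP-positive cells carrying TDP-43 aggregates across compound concentrations.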

Row | Structure (SMILES) | IC50 [1] | Average Additive Dendrite Length (%) [2] | IC50 [3]
1 | COc1cc(NC(=O)CCC2CCCN(Cc3ccc(F)c(OC)c3)C2)cc(OC)c1 (stereo not shown) [Compound 100, N-(3,5-dimethoxyphenyl)-3-(1-(4-fluoro-3-methoxybenzyl)-piperidin-3-yl)propanamide] | 101 to 250 nM | E (E represents an average rescue total dendrite length of <0%) | 
2 | COc1ccccc1OCC(=O)NC1CCCN(c2nc3ccccc3s2)C1 (stereo not shown) [Compound 102, N-(1-(benzo[d]thiazol-2-yl)piperidin-3-yl)-2-(2-methoxyphenoxy)acetamide] | 251 to 500 nM | B (B represents an average rescue total dendrite length of 100-149%) | 
3 | CCN(CC1CCCN(CCc2cccc(OC)c2)C1)C(=O)c1cc2ccccc2[nH]1 (stereo not shown) [Compound 101, N-ethyl-N-((1-(3-methoxyphenethyl)piperidin-3-yl)methyl)-1H-indole-2-carboxamide] | 101 to 250 nM | C (C represents an average rescue total dendrite length of 50-99%) | < 1500 nM
